Test results from patent US20230192764A1, “NOVEL DOPAMINE PRECURSORS” (Yissum Research Development Company of the Hebrew …, priority 2018, published 2023).
Where “and” joins values, the source holds several entries; their conditions need not be identical. Equal values may be shown once.

Legend:
ERK1/2 phosphorylation = test: AuF-induced phosphorylation of ERK1/2 in PC12 cells, western blot; type: cell-based; settings: 10 µM AuF, normalized to total ERK2, read-out: EC50, lowering of AuF induced activation of ERK1/2
Experimental: Cells were treated with 10 µM AuF with or without SDA-341. Phosphorylation was determined by western blot analysis (FIG. 6A). The amount of each band was quantitated by densitometry (FIG. 6B) and plotted with a linear regression program normalized to total ERK2 (FIG. 6C).
The ability of SDA-341 to lower AuF induced activation of ERK1/2 in PC12 cells with the corresponding anti ERK1/2 and ERK2 antibodies was also tested, as shown in FIG. 6. Calculated EC50=80µM.

[1] = Body weight monitoring in rotenone-treated rats; type: in vivo, Sprague Dawley rats; settings: for Weight: individual rat, listed as SDA
Experimental: (§1) 1-SD (Rotenone + SD); 2 - SDA (Rotenone + SDA); 3 - Control (Rotenone); 4 -Naive. The experimental groups were comprised of 6 animals for treated groups (1-3) and 2 animals in naive group (4). Rotenone was administrated 3.0 mg/kg intraperitoneally (IP) once a day in the morning (days 1-9). SD 33 mg/kg and SDA 33 mg/kg were administrated intraperitoneally once a day in the afternoon (days 1-9).
Animals weight was measured before initiation of treatment (day 0), on days 4,7, 9 during the experiment and on termination day 11. On day 11, animals were sacrificed and brains were harvested for further histopathological analysis.
(§2) IP administration: Rotenone was administrated to groups 1-3. Rotenone was injected intraperitoneally at a dose 3.0 mg/kg once a day in the morning (days 1-9). SD and SDA was administrated both at a dose of 33 mg/kg and were injected intraperitoneally once a day in the afternoon (days 1-9). Group number 4 was untreated, and remained as a naive group.

[2] = system: Rotenone -induced model of Parkinson's disease (PD) in rats; test: Rotarod behavior assay, rotenone model; type: in vivo, Sprague Dawley rats; settings: for R.R (rotarod): individual rat, listed as SDA
Experimental: as §1
(§3) Rearing behavior, rotarod and beam walk tests were performed before initiation of treatment (day 0) as well as on days 4, 8 and 10 of the experiment.
as §2
The test was used to evaluate motor coordination and balance. Apparatus was set to accelerate from 4 to 40 rpm in 300 s, and animals from same cage are placed in separate lanes on rod initially rotating at 4 rpm.

[3] = system: Rotenone -induced model of Parkinson's disease (PD) in rats; test: Rat rearing behavior (cylinder) test, rotenone model; type: in vivo, Sprague Dawley rats; settings: for Cylinder rise and touch (number of rears in 2 min): individual rat, listed as SDA
Experimental: as §1, §3, §2
Animals were placed in a clear glass cylinder (40 cm high and 20 cm diameter) and number of rears in 2 min was observed. Rear was considered as animals raised their hands above the shoulder and made contact with the wall of cylinder with their forelimb.

[4] = system: Rotenone -induced model of Parkinson's disease (PD) in rats; test: Rat beam walk test, rotenone model; type: in vivo, Sprague Dawley rats; settings: for beam end time: individual rat, listed as SDA
Experimental: as §1, §3, §2
Animals were gently placed on 1 m long narrow aluminum beam facing one of the ends and allowed to walk to the end of the beam.

p38MAPK phosphorylation = test: AuF-induced phosphorylation of p38MAPK in SH-SY5Y cells, western blot; type: cell-based, human; settings: summary statement
Experimental: Cells were treated with 10 µM AuF with or without SD-444. Phosphorylation was determined by western blot analysis. The amount of each band was quantitated by densitometry and plotted with a linear regression program normalized with β catenin (b-cat).
(§4) In the assay, twenty to thirty micrograms of protein samples were loaded on 10-12% SDS-PAGE gels. The proteins were then transferred electrophoretically to nitrocellulose (Whatman, Germany). The blots were blocked by incubation for 1 h at RT in TBS-T (25 mM Tris-HCl pH 7.4, 0.9% NaCl and 0.02% Tween-20) with 4% Difco skim milk (BD, USA), and incubated over-night at 4° C. with the primary antibody: p-p38^MAPK (Thr180/Tyr182), rabbit mAb; p38, rabbit Ab.

JNK phosphorylation = test: AuF-induced phosphorylation of JNK in SH-SY5Y cells, western blot; type: cell-based, human
Experimental: SH-SY5Y cells were treated with 10 µM AuF with or without SD-444. Phosphorylation was determined by western blot analysis. The amount of each band was quantitated by densitometry and plotted with a linear regression program normalized to total JNK.
as §4
as §4, with “1h” for “1 h”, “p-JNK^MAPK, and β-catenin.” for “p-p38^MAPK (Thr180/Tyr182), rabbit mAb; p38, rabbit Ab.”

[5] = average n=6, day 0 (before treatment)
[6] = day 0 (before treatment), rotenone 3 mg/kg + compound 33 mg/kg IP
[7] = rats, rotenone 3.0 mg/kg IP + compound 33 mg/kg IP, days 1-9

CC(=O)NC(CS)C(=O)NC(Cc1cccc(O)c1O)C(N)=O (centres unmarked) [SDA-341, Acetyle-Cys-2,3 dihydroxyphenylalanine-amide]
EC50 (ERK1/2 phosphorylation): 80 µM | Weight, group average [1, 5]: 304.33 gr | Weight, group average ([1]; average n=6, day 4): 294.17 gr | Weight, group average ([1]; average n=6, day 7): 284.33 gr | Weight, group average ([1]; average n=6, day 9): 275.50 gr | Weight, group average ([1]; average n=6, day 11): 271.33 gr | Weight [1, 6]: 292 gr and 307 gr (2×) and 305 gr and 315 gr and 300 gr | Weight ([1]; day 4, rotenone 3 mg/kg + compound 33 mg/kg IP): 284 gr and 293 gr and 299 gr (2×) and 294 gr and 296 gr | Weight ([1]; day 7, rotenone 3 mg/kg + compound 33 mg/kg IP): 274 gr and 283 gr (2×) and 287 gr and 288 gr and 291 gr | Weight ([1]; day 9, rotenone 3 mg/kg + compound 33 mg/kg IP): 275 gr and 272 gr and 267 gr and 274 gr and 281 gr and 284 gr | Weight ([1]; day 11, rotenone 3 mg/kg + compound 33 mg/kg IP): 272 gr and 261 gr and 269 gr and 266 gr and 283 gr and 277 gr | R.R (rotarod), group average [2, 5]: 285.17 s | R.R (rotarod), group average ([2]; average n=6, day 4): 286.33 s | R.R (rotarod), group average ([2]; average n=6, day 8): 266.33 s | R.R (rotarod), group average ([2]; average n=6, day 10): 227.00 s | R.R (rotarod) [2, 6]: 278 sec and 300 sec (2×) and 269 sec and 290 sec | R.R (rotarod) ([2]; day 4): 298 sec and 274 sec and 263 sec and 300 sec (2×) and 283 sec | R.R (rotarod) ([2]; day 8): 281 s and 249 s and 234 s and 277 s and 268 s and 289 s | R.R (rotarod) ([2]; day 10): 270 s and 195 s and 123 s and 260 s and 243 s and 271 s | rotarod test, motor dysregulation mediated by rotenone [2, 7]: significantly reversed | Cylinder rise and touch, group average [3, 5]: 12.83 | Cylinder rise and touch, group average ([3]; average n=6, day 4): 12.67 | Cylinder rise and touch, group average ([3]; average n=6, day 8): 14.83 | Cylinder rise and touch, group average ([3]; average n=6, day 10): 12.50 | Cylinder rise and touch (number of rears in 2 min) [3, 6]: 18 (2×) and 9 and 12 (2×) and 8 | Cylinder rise and touch (number of rears in 2 min) ([3]; day 4): 14 (2×) and 12 and 11 and 15 and 10 | Cylinder rise and touch (number of rears in 2 min) ([3]; day 8): 15 and 19 (2×) and 8 and 12 and 16 | Cylinder rise and touch (number of rears in 2 min) ([3]; day 10): 11 and 14 (2×) and 9 and 10 and 17 | Cylinder test, maintaining locomotor activity in Rotenone-treated rats [3, 7]: very effective | beam end time, group average [4, 5]: 9.50 s | beam end time, group average ([4]; average n=6, day 4): 17.50 s | beam end time, group average ([4]; average n=6, day 8): 25.67 s | beam end time, group average ([4]; average n=6, day 10): 20.33 s | beam end time [4, 6]: 7 s and 3 s and 10 s and 8 s and 12 s and 17 s | beam end time ([4]; day 4): 12 s and 32 s and 14 s and 21 s and 10 s and 16 s | beam end time ([4]; day 8): 16 s and 23 s and 52 s and 18 s and 19 s and 26 s | beam end time ([4]; day 10): 22 s and 17 s and 34 s and 10 s and 21 s and 18 s | Walk-beam test, reversal of rotenone induced imbalance [4, 7]: very effective | p38 phosphorylation (AuF-triggered) (p38MAPK phosphorylation): inhibit | EC50 (JNK phosphorylation; 10 µM AuF, western blot densitometry, read-out: EC50 in reduction of JNK activation): 100 µM | JNK phosphorylation (AuF-triggered) (JNK phosphorylation; summary statement): inhibit
